Measurements: patent US20080009802A1, “Method of treating acne with stratum corneum piercing device” (priority 2005, published 2008)
Where two headings read alike, the source gives them in different places.

Tested on: skin site on subject's forearm or face
Settings: for ENHANCED ACTIVE DELIVERY (HISTAMINE RESPONSE): about 10 microliters 0.10% wt/wt histamine, visual inspection after 10 minutes
Description: The microprotrusion disk of Example 1 was affixed on the desired skin site on subject's forearm or face. The implement of Example 3 was used to push the microprotrusion disk through stratum corneum with predetermined impact pressure modified by the choice of spring. The impact pressure was measured using a digital force meter (Model DFM 10, Chatillon, Greensboro, N.C.). The contact area between the implement device and skin was determined to be about 1.2 cm in diameter. The pressure per unit area was calculated from the ratio of pressure/contact area. The disk was removed immediately after the application. Both subject sensation (e.g., pain and sting) and erythema of the testing site were recorded immediately after the application, and is reported in Table 1.
The reaction of the subject's skin to histamine (e.g., erythema) was recorded after 10 minutes following histamine application to the treatment site by visual inspection. Additional inspection followed if a reaction was detected at 10 minutes. Controls were run by applying histamine solution to untreated skin sites (e.g., sites not pierced by the microprotrusion members). All test sites were graded visually for the evidence of post-inflammatory hyperpigmentation (PIH) for up to at least 3 weeks.

Which “skin's reaction to topically applied histamine” value (control test sites: untreated skin, not pierced by the microprotrusion members) does the source give for `NCCc1c[nH]cn1` [histamine] here?
The value was “did not result in erythema”.

And the “skin's reaction to topically applied histamine” value (following microprotrusion treatment)?
The value was “manifested in erythema”.

And the “ENHANCED ACTIVE DELIVERY (HISTAMINE RESPONSE)” value (shortened to “ENHANCED ACTIVE DELIVERY”) (subject 1/Forearm, microprotrusion length 225 micrometer, 8 lbs/cm^2)?
Its value is “Yes,”.

And the “ENHANCED ACTIVE DELIVERY” value (subject 2/Forearm, microprotrusion length 225 micrometer, 6 lbs/cm^2)?
The value was “Yes,”.

And the “ENHANCED ACTIVE DELIVERY” value (subject 3/Cheek (bone), microprotrusion length 185 micrometer, 3.2 lbs/cm^2)?
Its value is “Yes, but not”.

And the “ENHANCED ACTIVE DELIVERY” value (subject 4/Forearm, microprotrusion length 185 micrometer, 4.6 lbs/cm^2)?
The value was “Yes,”.

And the “ENHANCED ACTIVE DELIVERY” value (subject 5/Forearm, microprotrusion length 185 micrometer, 8 lbs/cm^2)?
The value was “Yes,”.

What about the “ENHANCED ACTIVE DELIVERY” value (subject 6/Forehead, microprotrusion length 145 micrometer, 5 lbs/cm^2) of the same molecule?
The value was “Yes,”.
